These results are taken from PubChem BioAssay AID179 (DTP/NCI, 2004).

For orientation: EC50 means the concentration giving half of the maximal effect. The term IC50 denotes the concentration needed to halve the response being measured. A lower IC50 goes with greater potency.

The test system of this experiment is CEM cells HIV-1 protection, formazan growth assay. As to the kind of experiment: NCI AIDS Antiviral Assay. As to conditions: for IC50: measured here: growth of uninfected CEM cells. The method, boiled down: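 Protection of CEM cells against HIV-1 was scored from cell growth (soluble formazan) across five concentrations, with parallel uninfected cells. Lack of protection may reflect toxicity.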

Activity calls are given as the source filed them.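 The calls were made as follows: active = compounds giving half or more protection of infected cells from virus-caused growth loss, again on retest; inactive = the rest.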

Consider `O=C(c1ccccc1)N1CCCCC(Cl)C1=O` (configuration not stated), for which the EC50 was over 1000 µM and the IC50 is over 1000 µM.

As to `O=C1CC(=O)NC(=NN2C(=O)CSC2c2ccc(Cl)c(Cl)c2)N1` (configuration not stated), the EC50 was over 200 µM and the half-inhibitory concentration (IC50) came to 102 µM.

For `CCOc1ccccc1N1C(=O)C(=O)C(c2nc3ccccc3s2)C(=O)C1=O`, the EC50 was over 18.2 µM and the IC50 is over 18.2 µM.

`CCOC(=O)/C=C/c1ccccn1`: the EC50 is over 1410 µM and the IC50 worked out at 646 µM.

Consider `C[C@@H]([C@H]1[C@H](O)C[C@@]2(C)[C@@H]3C=C[C@H]4C(C)(C)[C@@H](N(C)C)CC[C@@]45C[C@@]35CC[C@]12C)N(C)C`, for which the EC50 is over 100 µM and the concentration for half-maximal inhibition (IC50) is over 100 µM.

With `COc1cccc(C2=NC(C(C)C)CO2)c1OC` (configuration not stated), the EC50 is over 525 µM and the IC50 is 316 µM.

Regarding `O=C(O)c1c2c(cc3c(=O)cc(-c4ccccc4)oc13)CCCC2`, the result was inactive.

With `COc1cc2oc(-c3ccc4c(c3)OCO4)c(OC)c(=O)c2c(OC)c1O`, the EC50 was over 200 µM and the concentration for half-maximal inhibition (IC50) was over 200 µM.

As to `COc1cc(C2c3cc4c(cc3OC(NNc3ccccc3)C2C)OCO4)cc(OC)c1O` (configuration not stated), the outcome was inactive.

Take `Clc1ccc(N=c2ccc3ccccc3[oH+]2)cc1.Clc1ccc(N=c2ccc3ccccc3[oH+]2)cc1.[Ni]`: the outcome was inactive.

On to `C=C(C)C(C(=O)OC(c1ccccc1)c1ccccc1)N1C(=O)C(NC(=O)COc2ccccc2)C1SSc1nc2ccccc2s1` (configuration not stated), for which the EC50 was over 200 µM and the half-inhibitory concentration (IC50) came to 8.32 µM.

As to `COc1ccc2c(c1)C(=O)N1CSCC1C(=O)S2` (configuration not stated), the EC50 is over 200 µM and the 50% inhibitory concentration (IC50) is over 200 µM.

Take `Cc1cc(=O)c2c(o1)-c1ccccc1C(c1ccccc1)c1ccccc1-2` (configuration not stated): the EC50 was 1.51 µM and the IC50 came out at 25.1 µM.

Regarding `N#Cc1cccc(C[P+](c2ccccc2)(c2ccccc2)c2ccccc2)c1`, the EC50 is over 200 µM and the concentration for half-maximal inhibition (IC50) was 135 µM.

Consider `C=CCN1C(=O)CS/C1=N\NC(=O)CSc1nc2ccccc2c(=O)n1CC`, for which the EC50 was over 200 µM and the concentration for half-maximal inhibition (IC50) is over 200 µM.

With `O=C(CN1CCCCC1)N1CCc2c([nH]c3ccccc23)C1c1cccnc1` (configuration not stated), the EC50 was over 26.9 µM and the IC50 was over 26.9 µM.

`O=C(NCCCOC(=O)CCCCCCCCC(=O)OCCCNC(=O)NC(=O)c1c[nH]c(=O)[nH]c1=O)NC(=O)c1c[nH]c(=O)[nH]c1=O`: the EC50 was 214 µM and the concentration for half-maximal inhibition (IC50) amounted to 263 µM.

`Nc1nc(N)c(N=O)c(=O)[nH]1`: the EC50 is over 200 µM and the IC50 is over 200 µM.

Take `Cc1cc2c(cc1C)NC(=O)C(C)CN2` (configuration not stated): the EC50 was over 200 µM and the IC50 is over 200 µM.

On to `CC(=O)OCC1OC(n2c3c(cc(C#N)c2=S)CCC3)C(OC(C)=O)C(OC(C)=O)C1OC(C)=O` (configuration not stated), for which the EC50 is over 200 µM and the IC50 was 102 µM.

Regarding `CC(=O)NNc1nc(C)c(C(=O)NNC(=O)C(=O)Nc2ccc(Cl)cc2Cl)s1`, the result was inactive.

As to `Cc1nn(C(=O)c2ccc(Cl)cc2)c2c1C(c1ccco1)SC(N)=N2` (configuration not stated), the EC50 was 170 µM and the IC50 is over 200 µM.

As to `CCN(CC)CSc1nc2ccccc2s1`, the outcome was inactive.

For the compound `CN(C)CCCNC(=O)c1nc(NC(=O)c2nc(NC(=O)c3nc(NC(=O)c4ccc(C(=O)Nc5cn(C)c(C(=O)Nc6cn(C)c(C(=O)Nc7cn(C)c(C(=O)NCCCN(C)C)n7)n6)n5)nc4)cn3C)cn2C)cn1C`, the EC50 is over 50.1 µM and the IC50 was over 50.1 µM.

`CCOC(=O)/C(C#N)=C1/Sc2c(ncn(/N=C/c3ccc(OC)cc3)c2=O)N1c1ccccc1`: the EC50 was over 7.94 µM and the 50% inhibitory concentration (IC50) is over 7.94 µM.

`Nc1n[n+]([O-])c2cnccc2[n+]1[O-]`: the EC50 is over 200 µM and the IC50 is 70.8 µM.

`CN(C)c1cc(CNCCSC(c2ccccc2)(c2ccccc2)c2ccccc2)nc(CNCCSC(c2ccccc2)(c2ccccc2)c2ccccc2)c1`: the EC50 was over 200 µM and the half-maximal inhibitory concentration (IC50) amounted to 3.02 µM.

For `Clc1ccc(CSc2cnnc3c(Br)cccc23)c(Cl)c1`, the EC50 is over 24.5 µM and the IC50 was over 24.5 µM.

In the case of `O=c1n(-c2ccccc2)c(=O)n2n1C1C3C4C5C1C5C2C43` (configuration not stated), the EC50 is over 200 µM and the half-inhibitory concentration (IC50) was over 200 µM.

In the case of `Cc1cc(NS(=O)(=O)c2ccc(Nc3c4ccccc4nc4c(C(=O)Nc5ccc(S(=O)(=O)O)cc5)cccc34)cc2)no1`, the EC50 is 123 µM and the IC50 was over 200 µM.

Regarding `CN(C)c1ccc(/C=C/C(=O)c2ccc(O)cc2)cc1`, the EC50 was over 200 µM and the IC50 is 3.31 µM.

For the compound `CCOP(=O)(OCC)/C(C#N)=C/c1cccc(F)c1`, the EC50 was over 331 µM and the half-inhibitory concentration (IC50) is over 331 µM.

Consider `Cn1c2ccccc2n2c(=O)c(-c3ccc(Cl)cc3)nnc12`, for which the EC50 was over 200 µM and the IC50 is over 200 µM.

Turning to `Cc1sc2ncnc(N)c2c1C`, the EC50 is over 275 µM and the IC50 was over 275 µM.

For `N#CC(c1ccc(Cl)cc1)c1cccc(C(C#N)c2ccc(Cl)cc2)n1` (configuration not stated), the EC50 is over 661 µM and the half-maximal inhibitory concentration (IC50) is over 661 µM.

On to `C=C(C)C1CC(=O)C(C)=C(O)C1` (configuration not stated), for which the outcome was inactive.

In the case of `Cc1ccc2c(c1C)C(=O)C1(C2)Cc2ccc3c(c2C1=O)CCC3` (configuration not stated), the EC50 was over 100 µM and the IC50 is over 100 µM.

Turning to `O=[N+]([O-])C(C(Cl)=C(Cl)Cl)=C(N(Cc1ccccc1)Cc1ccccc1)N(Cc1ccccc1)Cc1ccccc1`, the EC50 was over 0.2 µM and the concentration for half-maximal inhibition (IC50) is over 0.2 µM.

Take `CC(C)(C)OC(=O)N1CCCC1C(=O)NCCNc1ccc(NCCNC(=O)C2CCCN2C(=O)OC(C)(C)C)c2c1C(=O)c1ccccc1C2=O` (configuration not stated): the EC50 is over 151 µM and the IC50 stood at 6.61 µM.

`CCOC(OC1=C(C#N)CCCC1)C(C)[Se]c1ccccc1` (configuration not stated): the EC50 is over 20 µM and the 50% inhibitory concentration (IC50) was over 20 µM.

`COC(=O)C(=O)C(C(=O)Nc1cccc(C)c1C)C1Sc2ccccc2NC1=O` (configuration not stated): the EC50 was over 17.4 µM and the half-maximal inhibitory concentration (IC50) is 16.6 µM.

Take `O=C(NO)C(=O)Nc1ccc(Cl)cc1[N+](=O)[O-]`: the EC50 was over 100 µM and the concentration for half-maximal inhibition (IC50) is over 100 µM.

Consider `N#CC(C#N)=C(N)/C(C#N)=C/c1ccc2[nH]ccc2c1`, for which the EC50 is over 200 µM and the IC50 was over 200 µM.

For `CN(C)C[C@H]1CC[C@@H](CN(C)C)C1=O`, the outcome was inactive.

With `CCOc1ccc2nc(NC(=O)C(=O)C(C#N)CC(C)(C)C=O)sc2c1` (configuration not stated), the EC50 is over 479 µM and the concentration for half-maximal inhibition (IC50) was found to be 263 µM.

For the compound `Cc1cc(C)nc(NS(=O)(=O)c2ccc(NC(=O)c3cccc4c(N)c5ccccc5nc34)cc2)n1`, the EC50 is over 44.7 µM and the IC50 is over 44.7 µM.

With `CC1=C(C(=O)Nc2ccccc2)C(c2ccc([N+](=O)[O-])cc2)C(C(=O)Nc2ccccc2)=C(C)N1`, the EC50 was over 15.5 µM and the IC50 was over 15.5 µM.

Turning to `CCC(=O)C1=C(OC(C)=O)C2Cc3c(n(C)c4ccccc34)C(C1)N2C` (configuration not stated), the outcome was inactive.

Take `COc1ccc2cc3c4cc(OC)c(OC)cc4ccn3c2c1`: the EC50 is over 23.4 µM and the IC50 is 22.9 µM.

On to `CC1(C(=O)O)CCC(C(=O)O)C(C)(C)O1` (configuration not stated), for which the EC50 is over 200 µM and the IC50 was over 200 µM.

Take `O=[N+]([O-])C(=C1NCCN1)/C(Cl)=C(\Cl)Br`: the EC50 is over 200 µM and the IC50 worked out at 16.6 µM.

As to `O=c1[nH]nc(Cc2ccccc2)n1/N=C/c1ccc([N+](=O)[O-])cc1`, the EC50 is over 200 µM and the IC50 is over 200 µM.

In the case of `Cc1noc(NS(=O)(=O)c2ccc(NC(=O)c3ccc4nc5ccccc5c(Nc5ccc(S(=O)(=O)Nc6onc(C)c6C)cc5)c4c3)cc2)c1C`, the EC50 was 63.1 µM and the IC50 was 110 µM.

Take `COc1ccc(/C=C2\CCc3ccccc3C2=O)cc1`: the EC50 is over 19.5 µM and the IC50 is 12.6 µM.

Turning to `CCCC/C=C(/CCCNC=O)[Si](C)(C)C`, the EC50 is over 537 µM and the IC50 was over 537 µM.

For the compound `CC1(C)OC(=O)c2cc(C(=CCCO)c3cc(Cl)c4c(c3)C(=O)OC(C)(C)O4)cc(Cl)c2O1`, the EC50 was over 200 µM and the IC50 stood at 28.8 µM.

Regarding `C=C(C)COC(=O)C1CC2OC2CC1C(=O)OCC(=C)C` (configuration not stated), the EC50 is over 200 µM and the IC50 stood at 166 µM.

With `COC(=O)C(=O)C(C(=O)OC)C(=O)C(=O)Nc1ccccc1C(N)=O` (configuration not stated), the EC50 is over 74.1 µM and the IC50 is over 74.1 µM.

On to `NC(CSS(=O)(=O)O)=NCCCCc1ccccc1`, for which the EC50 is over 200 µM and the IC50 was 107 µM.

Turning to `CCCN(CCC)C(=O)C(=O)c1c(N)[nH]n(-c2ccccc2)c1=O`, the outcome was inactive.

For the compound `O=C(CSS(=O)(=O)O)c1ccccc1`, the EC50 is over 200 µM and the half-inhibitory concentration (IC50) is over 200 µM.

For `C[C@@H]1CC/C=C(/[Si](C)(C)C)C[C@H](C)O1`, the EC50 was over 1170 µM and the IC50 was over 1170 µM.

With `O=c1[nH]c2cc(O)ccc2c2cc3c(c(O)c12)OCO3`, the result was inactive.

Take `O=C(O)CCCCCCC[C@@H]1S[C@H]1CCCCCCO`: the outcome was inactive.

With `CN1NC2=NCCN=C3NN(C)C(=NCCN=C1S2)S3`, the outcome was inactive and the half-inhibitory concentration (IC50) is over 200 µM.

In the case of `CN(C)CCN(C)C(=O)C1CCCN1C(=O)OCc1ccccc1` (configuration not stated), the EC50 is over 759 µM and the IC50 turned out to be 46.8 µM.

On to `[N-]=[N+]=Nc1ccc2c(c1)Sc1ccccc1N2CCCCN1CCN(Cc2ccc(C(=O)c3ccc(CSCC(N)C(=O)O)cc3)cc2)CC1` (configuration not stated), for which the EC50 is over 200 µM and the IC50 stood at 32.4 µM.

On to `O=C1/C(=C/c2ccc(OC(=O)c3ccccc3)cc2)CCC/C1=C\c1ccc(OC(=O)c2ccccc2)cc1`, for which the EC50 was over 100 µM and the IC50 is over 100 µM.

As to `Nc1nc(Nc2ccc(Cl)c(Cl)c2)c(N=O)c(=O)[nH]1`, the EC50 was over 200 µM and the IC50 stood at 3.72 µM.
